From PMC13267291, “In vivo functional profiling and structural characterization of the human GLP1R A316T variant” (Science Advances, 2026)

Legend:
[1] = system: INS-1 832/3 Glp1r^−/− SNAP/FLAG-hGLP1R^A316T cells; assay: Lysosomal inhibition assay, surface GLP-1R in INS-1 832/3 cells; type: cell-based, rat; conditions: 400 nM, 2 hours; comparable to WT; n = 5; Fig. 7D
Description: (§1) INS-1 832/3 Glp1r^−/− SNAP/FLAG-hGLP1R^WT or ^A316T cells on coverslips, mouse hGLP1R^−/− islets transduced with pAV-SNAP/FLAG-hGLP1R^WT or ^A316T adenoviruses, or hGLP1R^A316T/A316T and ^+/+ control islets were incubated for 2 hours ± 400 nM bafilomycin-A1 (Sigma-Aldrich), an established vacuolar H^+-ATPase and lysosomal trafficking inhibitor ([98]), in complete medium. Cells and transduced hGLP1R^−/− islets were then labeled with 1 μM SNAP-Surface 549, and hGLP1R^A316T/A316T versus ^+/+ islets were treated with exendin-9–TMR in complete medium at 37°C for 10 min. Cells were washed and fixed in 4% PFA, mounted in Prolong Diamond antifade reagent with DAPI, while islets were loaded onto glass-bottom MatTek dishes in PBS, and images were acquired by confocal microscopy with a Zeiss LSM-780 inverted confocal laser scanning microscope and a 63×/1.4 numerical aperture oil immersion objective from the Imperial College FILM Facility. Images were analyzed using Fiji.

[2] = system: hGLP1R^−/− mouse islets transduced with SNAP/FLAG-hGLP1R^WT versus ^A316T; islets from hGLP1R^+/+ versus ^A316T/A316T mice; assay: Lysosomal inhibition assay, surface GLP-1R in mouse islets; type: cell-based; conditions: 400 nM, 2 hours; n = 3 and n = 4; Fig. 7E,F
Description: as §1

[3] = system: human GLP-1R A316T versus WT; assay: Insulin secretion assay in mouse islets; type: cell-based; conditions: HFHS-fed mouse islets; 11 mM glucose + 100 nM; fig. S6I
Description: Purified mouse islets used for insulin secretion assays were treated in 24-well nonadherent plates. Eight islets were used per replicate with three technical replicates per condition. For acute studies, islets were preincubated for 1 hour in KRBH buffer containing 0.1% (w/v) bovine serum albumin (BSA) (10775835001, Roche) and 3 mM glucose before incubation with 11 mM glucose ± 100 nM GLP-1RAs or the GLP-1R antagonist exendin-9 in KRBH buffer in a shaking 37°C water bath (80 rpm) for 1 hour. For overnight studies, preincubation was carried out in RPMI 1640 medium containing FBS, P/S, and 3 mM glucose, followed by treatment with medium supplemented with 11 mM glucose ± GLP-1RAs for 16 hours. Supernatants containing secreted insulin were collected, centrifuged at 1000 rpm for 1 min, and transferred to fresh tubes. For total insulin content, islets were lysed using acidic ethanol (75% ethanol, 1.5 mM HCl). Lysates were sonicated 3× 10 s each in a water bath and centrifuged at 10,000g for 10 min, and supernatants were collected. For human islets, the same experiment was performed with islets previously transduced with pAV-SNAP/FLAG-hGLP1R^WT or ^A316T adenoviruses (generated by VectorBuilder) at a multiplicity of infection of 1, 24 hours before the start of experiments. Insulin secretion assays with the human EndoC-βH3 cell line were performed following 3 weeks of treatment with 4-hydroxytamoxifen as above, followed by transduction with pAV-SNAP/FLAG-hGLP1R^WT or ^A316T adenoviruses, with insulin secretion assessed as previously described ([54]), with the following modifications: After preincubation with 0.5 mM glucose KRBH buffer, cells were stimulated with 15 mM glucose ± exendin-4 for 60 min. Total and secreted insulin samples from islets and cells were stored at −20°C until quantification using an Insulin Ultra-Sensitive HTRF kit (#62IN2PEG, Revvity) in a PHERAstar plate reader (BMG Labtech), according to the manufacturer’s instructions.

Compound | Surface expression levels of GLP-1R A316T after lysosomal inhibition [1] | Surface GLP-1R A316T after lysosomal inhibition in islets [2] | Basal insulin secretion of A316T islets on exposure to antagonist/inverse agonist [3]
CO/C1=C\C(C)=C\[C@@H](C)[C@@H](O)[C@@H](C)C/C(C)=C/C=C/[C@H](OC)[C@@H]([C@@H](C)[C@@H](O)[C@H](C)[C@@]2(O)C[C@@H](O)[C@H](C)[C@@H](C(C)C)O2)OC1=O [bafilomycin A1] | complete recovery of surface expression levels | same effect | 
exendin-9 |  |  | significantly reduced
